Measurements as given in US8759331B2, “X-ray and gamma-photon activable organic compounds, their preparation and their uses” (Centre National de la Recherche Scientifique, priority 2010, dated 2014).
“Also recorded” adds a separate entry of the source.

How the values were obtained:
[1] = radiolysis under X-ray irradiation (17.5 keV), followed by HPLC; format: physicochemical; details: soft X-ray irradiation 17.5 keV
Procedure: The radiolysis was followed either by the diminution of the caged compound 5, or by the increasing of the photo-products 6 and 7. […] The photo-fragmentation follows a first order kinetic with a time constant of 4.7×10^−3 min^−1.
The evolution of the radiolysis was followed by HPLC using C-18 reverse phase chromatography (XTerra, eluents: methanol/HCO2H (0.1% aq), H2O/HCO2H (0.1% aq) detection at 260 and 320 nm).

[2] = photolysis under one-photon (UV) irradiation at 366 nm, followed by HPLC/LC-MS; format: physicochemical; details: 366 nm UV irradiation, physiological conditions / aqueous buffer pH 7
Procedure: The photochemical efficiency of any chromophores is determined by the extinction coefficient (ε) and the quantum yield (Qu) that is characteristic of the observed photochemical event of the chromophore. The product of these quantities (εQu) characterizes the efficiency of the event such as fluorescence or chemical transformation, for example by the incident light.
The photolysis at 366 nm of compound 5 was monitored by the disappearance of the caged hydrocinnamate 5 and by the appearance of the compounds 6 and 7, by using liquid chromatography (LC) or liquid-chromatography-mass spectrometry (LC-MS) techniques. […] In contrast, compound 4 was inert under UV irradiation at 366 nm.
Samples were prepared in c=0.1 mM concentration in aqueous TRIS buffer (pH=7). An aliquot (1 mL) of this solution was irradiated at 366 nm (ε366=3000 M^−1·cm^−1) in a 1 mL quartz cuvette. The evolution of the photolysis was followed by HPLC using C-18 reverse phase chromatography (XTerra, eluents: methanol/HCO2H (0.1% aq), H2O/HCO2H (0.1% aq) detection at 260 and 320 nm).

| photolysis under near UV irradiation (366 nm) [2] | SMILES | photo-fragmentation under X-ray irradiation [1] |
| --- | --- | --- |
| prone to photolysis | CC(C)(C)OC(=O)N1CCN(c2ccc3ccc(COC(=O)CCc4ccccc4)nc3c2)CC1 [compound 3] | no detectable photo-fragmentation; also recorded: no traces of photo-fragmentation |
| inert | O=C(CCc1ccccc1)OCc1ccc2ccc(N3CCNCC3)cc2n1 [compound 4] | no detectable photo-fragmentation; also recorded: no traces of photo-fragmentation |
